Data on 10 compounds can be found in ChEMBL document CHEMBL5029197, “Synthesis and Metabolism of BTN3A1 Ligands: Studies on Diene Modifications to the Phosphoantigen Scaffold” (ACS Med Chem Lett, 2022).

Calls of active or inactive are those of the source. The calls are words filed in the database; no cut-off is given here.

Data set [1] can be described thus: Stability of compound in human plasma assessed as parent compound remaining at 100 uM measured after 2 hrs by LC-MS analysis. The settings on record: for remaining at 2 h, 100 µM: read-out: Stability; for Stability: 2 h, 100 µM. The data set is classed as ADME, cell-free.
Data set [2] can be described thus: Stability of compound in human plasma assessed as parent compound remaining at 100 uM measured after 24 hrs by LC-MS analysis. In kind it is ADME, cell-free. The settings on record: for remaining at 24 h, 100 µM: read-out: Stability; for Stability: 24 h, 100 µM.
Data set [3] is described as follows: (§1) Induction of cell proliferation in human Vgamma9Vdelta2-T cells stimulated with human PBMC for 3 days followed by compound washout and supplemented with IL2 every 3 days for 11 days by flow cytometry analysis. In kind it is functional, cell-based.
For the next data set, the system named is K562. The data set can be described thus: Cytotoxicity against human K562 cells assessed as reduction in cell viability measured after 72 hrs by colorimetric assay. The data set is classed as cell-based. The settings on record: k562, 72 h.
Data set [4] in a line: (§2) Induction of IFN-gamma production in human Vgamma9Vdelta2-T cells incubated for 4 mins with compound-loaded K562 cells followed by compound washout and measured after 20 hrs by ELISA. The data set is classed as functional, cell-based. Conditions: Vgamma9Vdelta2 T cell.
A short description of data set [5]: (§3) Induction of IFN-gamma production in human Vgamma9Vdelta2-T cells incubated for 15 mins with compound-loaded K562 cells followed by compound washout and measured after 20 hrs by ELISA. In kind it is functional, cell-based. The settings on record: Vgamma9Vdelta2 T cell.
The nature of data set [6]: (§4) Induction of IFN-gamma production in human Vgamma9Vdelta2-T cells incubated for 60 mins with compound-loaded K562 cells followed by compound washout and measured after 20 hrs by ELISA. The data set is classed as functional, cell-based. The settings on record: Vgamma9Vdelta2 T cell.
Data set [7] can be described thus: (§5) Induction of IFN-gamma production in human Vgamma9Vdelta2-T cells incubated for 240 mins with compound-loaded K562 cells followed by compound washout and measured after 20 hrs by ELISA. In kind it is functional, cell-based. Conditions: Vgamma9Vdelta2 T cell. Background: ELISA stands for enzyme-linked immunosorbent assay.
The nature of data set [8]: Drug metabolism in human K562 cells assessed as free phosphonic diacid metabolite formation at 100 uM incubated for 1 hr by LC-MS analysis. The data set is classed as ADME, cell-based. Conditions: k562, 1 h.
In data set [9] the target is Butyrophilin subfamily 3 member A1 (Homo sapiens) (UniProt O00481). Briefly: Displacement of GDP-BODIPY probe from BTN3A1 full intracellular domain (unknown origin) at […] measured after 60 mins by fluorescence polarization assay. In general terms: In fluorescence polarisation assays a small probe gives low polarisation when free and higher when bound to something large.
Chain of Butyrophilin subfamily 3 member A1 (Homo sapiens) (O00481 30-513 limits assumed): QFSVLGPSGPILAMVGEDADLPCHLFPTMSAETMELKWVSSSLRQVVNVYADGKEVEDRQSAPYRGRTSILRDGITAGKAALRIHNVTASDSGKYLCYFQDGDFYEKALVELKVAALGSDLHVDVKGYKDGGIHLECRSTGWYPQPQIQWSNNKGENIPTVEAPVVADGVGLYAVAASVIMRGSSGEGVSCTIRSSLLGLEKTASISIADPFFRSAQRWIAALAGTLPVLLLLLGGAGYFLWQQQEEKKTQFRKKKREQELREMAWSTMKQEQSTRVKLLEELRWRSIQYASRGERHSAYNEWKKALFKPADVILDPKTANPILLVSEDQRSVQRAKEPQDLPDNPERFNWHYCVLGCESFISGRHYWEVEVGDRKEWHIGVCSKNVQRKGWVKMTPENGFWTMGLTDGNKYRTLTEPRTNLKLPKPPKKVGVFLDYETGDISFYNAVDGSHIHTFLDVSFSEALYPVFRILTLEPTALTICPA

Data set [10] in a line: Drug metabolism in human K562 cells assessed as monoacid methyl ester metabolite formation at 100 uM incubated for 1 hr by LC-MS analysis. In kind it is ADME, cell-based. The settings on record: k562, 1 h.
The subject of data set [11] is Vgamma9Vdelta2-T cell. Described as §1. In kind it is functional, cell-based. The settings on record: time 3.0 day.
For data set [12], the system named is Vgamma9Vdelta2-T cell. The data set is described as §2. The data set is classed as functional, cell-based.
For data set [13], the system named is Vgamma9Vdelta2-T cell. Described as §3. In kind it is functional, cell-based.
The subject of data set [14] is Vgamma9Vdelta2-T cell. The data set is described as §4. In kind it is functional, cell-based.
Data set [15] has as its system Vgamma9Vdelta2-T cell. Described as §5. The data set is classed as functional, cell-based.

For the compound `COC(=O)[C@H](C)NP(=O)(/C=C/C=C(C)C)Oc1ccccc1` (some centres not stated), in [1], the remaining at 2 h, 100 µM was 69%. The remaining at 24 h, 100 µM in [2] amounted to 63%. Further, the 50% effective concentration (EC50) was 11 µM in [3]; greater than 100 µM in [4]; greater than 100 µM in data set [5]; greater than 100 µM in data set [6]; 75 µM in data set [7]. The Activity with K562 is greater than 100 µM. The Drug metabolism result in data set [8] is “Metabolite_Detected”.

As for `C/C(=C\CCP(=O)(O)O)CO`, the result in data set [9] was inactive.

Regarding `CC(C)=C/C=C/P(=O)(OCOC(=O)C(C)(C)C)Oc1ccccc1` (configuration not stated), in [1], the remaining at 2 h, 100 µM is 48%. Moreover, the remaining at 24 h, 100 µM in data set [2] turned out to be 16%. For the same compound, the EC50 is 0.75 µM in data set [3]; greater than 100 µM in data set [4]; greater than 100 µM in [5]; 29 µM in [6]; 9.1 µM in data set [7]. For the same compound, the Activity with K562 is 100 µM. In data set [8], the Drug metabolism result is listed as “Metabolite_Detected”.

Consider `COP(=O)(/C=C/C=C(C)C)OCOC(=O)C(C)(C)C` (configuration not stated), for which, in data set [1], the remaining at 2 h, 100 µM was determined as 62%. In addition, the remaining at 24 h, 100 µM in data set [2] was 4%. The EC50 in [3] is 0.13 µM; in [4], greater than 100 µM; in [5] it was 98 µM; in [6], 37 µM; in [7] it was 11 µM. The Activity with K562 worked out at 20 µM. In addition, the Drug metabolism result in data set [10] is “Metabolite_Detected”.

With `C/C(=C\CCP(=O)(OCOC(=O)C(C)(C)C)OCOC(=O)C(C)(C)C)CO`, the Stability entry in data set [1] and in data set [2] was “Unstable” each time. In the data set with K562, the Activity was greater than 100 µM. Also, the concentration giving a half-maximal response (EC50) was 0.043 µM in data set [5], 0.03 µM in [6] and 0.024 µM in [7].

On to `C/C(=C\C=C\P(=O)(O)O)CO`, for which the concentration giving a half-maximal response (EC50) in data set [3] was found to be 15 µM. Also, in the data set on K562, the Activity is greater than 100 µM. Besides, the result in data set [9] was Active.

For the compound `CC(C)=C/C=C/P(=O)(OCOC(=O)C(C)(C)C)OCOC(=O)C(C)(C)C`, the remaining at 2 h, 100 µM in data set [1] came to 6%. In addition, the Stability result in data set [2] was “Unstable”. For the same compound, the concentration giving a half-maximal response (EC50) in data set [3] was 0.29 µM; in data set [4], greater than 100 µM; in data set [5], greater than 100 µM; in data set [6], 52 µM; in data set [7], 18 µM. Besides, the Activity in the data set on K562 was greater than 100 µM. Further, the Drug metabolism result in [8] was “Metabolite_Detected”.

Regarding `CC(C)=C/C=C/P(=O)([O-])[O-].[Na+].[Na+]`, the 50% effective concentration (EC50) in data set [3] was greater than 100 µM. The Activity with K562 was greater than 100 µM. The outcome in data set [9] was Active.

For `CC(C)=C/C=C/P(=O)(Oc1ccccc1)Oc1ccccc1`, in data set [1], the remaining at 2 h, 100 µM was found to be 89%. The remaining at 24 h, 100 µM in data set [2] was determined as 73%. In addition, the outcome with Vgamma9Vdelta2-T cell [11], in the data set with Vgamma9Vdelta2-T cell [12], in the data set on Vgamma9Vdelta2-T cell [13], with Vgamma9Vdelta2-T cell [14] and in the data set on Vgamma9Vdelta2-T cell [15] was inactive. In addition, in the data set on K562, the Activity was greater than 100 µM. Besides, the Drug metabolism result in data set [10] is recorded as “Metabolite_Notdetected”.

Consider `CC(=O)OC/C(C)=C/C=C/P(=O)(OCOC(=O)C(C)(C)C)OCOC(=O)C(C)(C)C`, for which the Stability result in data set [1] and in [2] was “Unstable” throughout. For the same compound, the concentration for a half-maximal effect (EC50) was 60 µM in [3]; greater than 100 µM in [4]; greater than 100 µM in [5]; greater than 100 µM in data set [6]; 38 µM in [7]. The Activity in the data set with K562 was greater than 100 µM. In data set [8], the Drug metabolism result is on record as “Metabolite_Detected”.

As a reminder, the EC50 is the midpoint of the concentration-response curve.
